The target in experiment [1] is T1, WRN helicase (His-WRN527-072) (Homo sapiens, UniProt Q14191).
T1 construct: in-house produced His-WRN527-072 was used; His (N); made in house
Kind of experiment: WRN Helicase Assay (fluorescent forked DNA). Format: biochemical. The note with it: 30 min pre-incubation, 60 min reaction at room temperature. The procedure:
To assess the inhibition properties of the invented compounds on WRN helicase activity, a fluorescent assay using forked DNA was set up. In the helicase assay, in-house produced His-WRN527-072 was used. […] 2.5-fold serial dilution of test compounds were prepared for 7 gradient points with DMSO, and then 1.5 μl of each concentration were added to 48.5 μl of assay buffer (25 mM Tris-HCl (pH 8.0), 50 mM NaCl, 2 mM MgCl2, 1 mM DTT, 0.0500 Tween-20, and 2.5 μg/ml BSA) for further dilution. […] Each concentration of the compounds was added as triplicate in the plate. Controls were included in the test to validate the assay. […] Forked DNA and ATP were diluted into 300 nM and 6 mM, respectively, with assay buffer. To initiate the reaction, 5 μl of the dsDNA and ATP solution were added to the assay plate. After 60 minutes room temperature incubation, the plate was transferred to Victor Nivo multimode plate reader (Perkin Elmer, Waltham, MA) and the fluorescence outputs were monitored. GraphPad Prism 9 (GraphPad Software, San Diego, CA) was used to carry out the dose-response curves, deriving IC50s.

A further experiment has as its target T2, WRN ATPase (Homo sapiens, UniProt Q14191).
T2 construct: in-house produced His-WRN527-072 was used; His (N); made in house
Kind of experiment: WRN ATPase Assay (ADP-Glo). The experiment is classed as biochemical. To be noted: DNA dependent WRN ATPase activity. The protocol:
WRN ATPase Assay To evaluate the inhibition properties of the invented compounds on DNA dependent WRN ATPase activity, an ATPase assay using ADP-Glo assay kit (Promega, Madison, WI) was established. In the ATPase assay, the same WRN protein and DNA substrate as described in helicase assay were used. The serial dilution of the compounds in DMSO was same as helicase assay. […] All the test wells were set as triplicate. Afterwards, 2.5 μl of assay buffer containing 400 nM DNA substrate and 4 mM ATP were added to each well and incubated for 60 minutes. The protein-free control (maximal inhibition) and no-compound control (no inhibition) were included in the test. To stop the reaction and deplete the excessive ATP, 10 μl of the ADP-Glo™ Reagent from the assay kit were added and incubated for 40 minutes. Then, 20 μl of the ATP detection reagent was added. After 30 minutes incubation, the luminescence was measured using Victor Nivo multimode plate reader (Perkin Elmer, Waltham, MA). Dose-response curves, spanning IC50s, were generated by GraphPad Prism 9 (GraphPad Software, San Diego, CA).
For orientation: ADP-Glo first removes unused ATP, then detects ADP through luciferase.

The next experiment concerns SW48. Description: SW48 cell assay. Format: cell-based. To be noted: Homo sapiens.

Structures are written as SMILES.

T1 sequence (Q14191 527-1072 limits assumed): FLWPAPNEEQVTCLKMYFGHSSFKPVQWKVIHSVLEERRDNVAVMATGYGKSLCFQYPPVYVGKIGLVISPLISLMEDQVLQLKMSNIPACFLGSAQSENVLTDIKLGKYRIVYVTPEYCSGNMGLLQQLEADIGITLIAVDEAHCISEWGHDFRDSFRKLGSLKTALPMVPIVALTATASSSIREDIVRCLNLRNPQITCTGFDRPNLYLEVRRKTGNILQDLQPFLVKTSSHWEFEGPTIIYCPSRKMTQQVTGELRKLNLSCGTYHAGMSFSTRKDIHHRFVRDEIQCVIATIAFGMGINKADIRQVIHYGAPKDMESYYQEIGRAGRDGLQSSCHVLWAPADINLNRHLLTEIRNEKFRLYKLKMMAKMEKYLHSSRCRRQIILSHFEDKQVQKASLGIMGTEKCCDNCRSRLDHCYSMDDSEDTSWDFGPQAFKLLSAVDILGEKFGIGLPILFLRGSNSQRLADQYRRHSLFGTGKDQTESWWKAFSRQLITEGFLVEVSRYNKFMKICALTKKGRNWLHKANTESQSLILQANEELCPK
T2 sequence (Q14191 527-1072 limits assumed): as above

As usually defined, the IC50 is the concentration that gives 50% inhibition. A higher IC50 goes with weaker potency in that assay. In the case of `CCc1c(N2CC3CC(C(=O)c4ncnc(C)c4O)C(C2)N3)c(=O)n2nc(C3=CCOCC3)nc2n1CC(=O)Nc1ccc(C(F)(F)F)cc1Cl` (stereo not drawn) [Compound 186], the half-maximal inhibitory concentration (IC50) was 2.7 nM in experiment [1], 13 nM at WRN ATPase and 716 nM in the experiment on SW48.

The values above are taken from patent US20260199351A1, “TRIAZOLE COMPOUNDS, PREPARATION METHODS AND MEDICINAL USES THEREOF” (Jiangsu Hengrui Pharmaceuticals Co., Ltd., priority 2022, published 2026).
